# According to US12134620B2 (ARAXES PHARMA LLC, priority 2018, dated 2024):
# Target: T1, KRAS G12C 1-169, his-tagged protein, GDP-loaded (Homo sapiens, UniProt P01116, G12C)
# T1 construct: KRAS G12C 1-169, his-tagged protein, GDP-loaded; His tag
# Assay: Biochemical assay: covalent modification of KRAS G12C, analysed by mass spectrometry (RapidFire/TOF or Q-Exactive); also: time not given here
# Assay type: binding
# Details: Modification activity, modification percentage from MS peak intensities
# Outline: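 GDP-loaded His-tagged KRAS G12C 1-169 (2 μM or 0.5 μM in 20 mM Hepes, 150 mM NaCl, 1 mM MgCl2) reacted with compound at 32 μM or 8 μM final (2% DMSO) for a set time, then quenched with formic acid. Percent covalent modification from deconvoluted intact-protein MS peak intensities (RapidFire/TOF or LC-Q Exactive).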
row,SMILES,Binding %
1,"C=CC(=O)N1CC2(CCN(c3nc(N4CCOCC4)nc(-c4c(C)ccc5[nH]nc(C)c45)c3C#N)C2)C1 [Compound I-96, 4-(2-acryloyl-2,6-diazaspiro[3.4]octan-6-yl)-6-(3,5-dimethyl-1H-indazol-4-yl)-2-morpholinopyrimidine-5-carbonitrile]",+++ (+++ indicates binding activity greater than 85%)
2,"C=CC(=O)N1CC2(CCN(c3nc(OC[C@@H]4CCCN4C)nc(-c4c(F)cccc4C(N)=O)c3C#N)C2)C1 [Compound I-45, 2-(6-(2-acryloyl-2,6-diazaspiro[3.4]octan-6-yl)-5-cyano-2-(((S)-1-methylpyrrolidin-2-yl)methoxy)pyrimidin-4-yl)-3-fluorobenzamide]",+ (+ indicates binding activity greater than 0% and up to 50%)
3,"C=CC(=O)N1CC2(CCN(c3nc(N4CCOCC4)nc(-c4cccc5ccccc45)c3C#N)C2)C1 [Compound I-100, 4-(2-acryloyl-2,6-diazaspiro[3.4]octan-6-yl)-2-morpholino-6-(naphthalen-1-yl)pyrimidine-5-carbonitrile]",+ (+ indicates binding activity greater than 0% and up to 50%)
4,"C=CC(=O)N1CC2(CCN(c3cncc(-c4c(C)ccc5cnn(C)c45)c3C#N)CC2)C1 [Compound I-265, 3-(2-acryloyl-2,7-diazaspiro[3.5]nonan-7-yl)-5-(1,6-dimethyl-1H-indazol-7-yl)isonicotinonitrile]",+ (+ indicates binding activity greater than 0% and up to 50%)
5,"C=CC(=O)N1CC2(CCN(c3cnc(OCc4ccccc4)c(-c4c(C)ccc5cnn(C)c45)c3C#N)C2)C1 [Compound I-225, 5-(2-acryloyl-2,6-diazaspiro[3.4]octan-6-yl)-2-(benzyloxy)-3-(1,6-dimethyl-1H-indazol-7-yl)isonicotinonitrile]",++ (++ indicates binding activity from 50 to 85%)
6,"C=CC(=O)N1CC2(CCN(c3cnc(OCc4ccccc4)c(-c4c(C)ccc5[nH]ncc45)c3C#N)C2)C1 [Compound I-220, 5-(2-acryloyl-2,6-diazaspiro[3.4]octan-6-yl)-2-(benzyloxy)-3-(5-methyl-1H-indazol-4-yl)isonicotinonitrile]",++ (++ indicates binding activity from 50 to 85%)
7,"C=CC(=O)N1CC2(CCN(c3nccc(-c4c(C)ccc5[nH]ncc45)c3C#N)C2)C1 [Compound I-267, 2-(2-acryloyl-2,6-diazaspiro[3.4]octan-6-yl)-4-(5-methyl-1H-indazol-4-yl)nicotinonitrile]",+ (+ indicates binding activity greater than 0% and up to 50%)
8,"C=CC(=O)N1CC2(CCN(c3nc(OCCc4ccccn4)nc(-c4c(C)ccc5[nH]ncc45)c3C#N)C2)C1 [Compound I-8, 4-(2-acryloyl-2,6-diazaspiro[3.4]octan-6-yl)-6-(5-methyl-1H-indazol-4-yl)-2-(2-(pyridin-2-yl)ethoxy)pyrimidine-5-carbonitrile]",+++ (+++ indicates binding activity greater than 85%)
9,"C=CC(=O)N1CC2(CCN(c3nc(N4CCC(N5CCN(C6CC6)CC5)CC4)nc(-c4c(C)ccc5[nH]ncc45)c3C#N)C2)C1 [Compound I-217, 4-(2-acryloyl-2,6-diazaspiro[3.4]octan-6-yl)-2-(4-(4-cyclopropylpiperazin-1-yl)piperidin-1-yl)-6-(5-methyl-1H-indazol-4-yl)pyrimidine-5-carbonitrile]",++ (++ indicates binding activity from 50 to 85%)
10,"C=CC(=O)N1CC2(CCN(c3cncc(-c4c(O)cccc4F)c3C#N)C2)C1 [Compound I-269, 3-(2-acryloyl-2,6-diazaspiro[3.4]octan-6-yl)-5-(2-fluoro-6-hydroxyphenyl)isoni-cotinonitrile]",+ (+ indicates binding activity greater than 0% and up to 50%)
11,"C=CC(=O)N1CC2(CCN(c3nc(N4CCCC4)nc(-c4c(C)ccc5[nH]ncc45)c3C#N)C2)C1 [Compound I-1, 4-(2-acryloyl-2,6-diazaspiro[3.4]octan-6-yl)-6-(5-methyl-1H-indazol-4-yl)-2-(pyrrolidin-1-yl)pyrimidine-5-carbonitrile]",+++ (+++ indicates binding activity greater than 85%)
12,"C=CC(=O)N1CC2(CCN(c3nc(N4CCOCC4)nc(-c4c(C)ccc5cnn(C6CC6)c45)c3C#N)C2)C1 [Compound I-97, 4-(2-acryloyl-2,6-diazaspiro[3.4]octan-6-yl)-6-(1-cyclopropyl-6-methyl-1H-indazol-7-yl)-2-morpholinopyrimidine-5-carbonitrile]",+ (+ indicates binding activity greater than 0% and up to 50%)
13,"C=CC(=O)N1CC2(CCN(c3ncnc(-c4c(C)ccc5[nH]ncc45)c3C3CC3)C2)C1 [Compound I-249, 1-(6-(5-cyclopropyl-6-(5-methyl-1H-indazol-4-yl)pyrimidin-4-yl)-2,6-diazaspiro[3.4]octan-2-yl)prop-2-en-1-one]",+ (+ indicates binding activity greater than 0% and up to 50%)
14,"C=CC(=O)N1CC2(CCN(c3nc(OC[C@@H]4CCCN4C)nc(-c4cccc5c4OCCO5)c3C#N)C2)C1 [Compound I-26, (S)-4-(2-acryloyl-2,6-diazaspiro[3.4]octan-6-yl)-6-(2,3-dihydrobenzo[b][1,4]dioxin-5-yl)-2-((1-methylpyrrolidin-2-yl)methoxy)pyrimidine-5-carbonitrile]",+ (+ indicates binding activity greater than 0% and up to 50%)
15,"Cc1ccc2[nH]ncc2c1-c1nc(OC[C@@H]2CCCN2C)nc(N2CCC3(CN(C(=O)/C=C/CN(C)C)C3)C2)c1C#N [Compound I-204, 4-(2-((E)-4-(dimethylamino)but-2-enoyl)-2,6-diazaspiro[3.4]octan-6-yl)-6-(5-methyl-1H-indazol-4-yl)-2-(((S)-1-methylpyrrolidin-2-yl)methoxy)pyrimidine-5-carbonitrile]",+ (+ indicates binding activity greater than 0% and up to 50%)
16,"C=CC(=O)N1CC2(CCN(c3nc(OC[C@@H]4CCCN4C)nc(-c4ccccc4-c4cn[nH]c4)c3C#N)C2)C1 [Compound I-107, (S)-4-(2-(1H-pyrazol-4-yl)phenyl)-6-(2-acryloyl-2,6-diazaspiro[3.4]octan-6-yl)-2-((1-methylpyrrolidin-2-yl)methoxy)pyrimidine-5-carbonitrile]",+ (+ indicates binding activity greater than 0% and up to 50%)
17,"C=CC(=O)N1CC2(CCN(c3nc(N4CCOCC4)nc(-c4c(C)ccc5[nH]nc(N)c45)c3C#N)C2)C1 [Compound I-33, 4-(2-acryloyl-2,6-diazaspiro[3.4]octan-6-yl)-6-(3-amino-5-methyl-1H-indazol-4-yl)-2-morpholinopyrimidine-5-carbonitrile]",+++ (+++ indicates binding activity greater than 85%)
18,"C=CC(=O)N1CC2(CCN(c3nc(OCc4cnc(OC)nc4)nc(-c4c(C)ccc5cnn(C)c45)c3C#N)C2)C1 [Compound I-161, 4-(2-acryloyl-2,6-diazaspiro[3.4]octan-6-yl)-6-(1,6-dimethyl-1H-indazol-7-yl)-2-((2-methoxypyrimidin-5-yl)methoxy)pyrimidine-5-carbonitrile]",++ (++ indicates binding activity from 50 to 85%)
19,"C=CC(=O)N1CC2(CCN(c3nc(OCc4ccc(N5CCOCC5)cn4)nc(-c4c(C)ccc5cnn(C)c45)c3C#N)C2)C1 [Compound I-162, 4-(2-acryloyl-2,6-diazaspiro[3.4]octan-6-yl)-6-(1,6-dimethyl-1H-indazol-7-yl)-2-((5-morpholinopyridin-2-yl)methoxy)pyrimidine-5-carbonitrile]",++ (++ indicates binding activity from 50 to 85%)
